Measurements: US20070196890A1, “Prebiotic effect analysis” (priority 2003, published 2007)

Tests used:
[1] = tested on: faecal bacteria; assay: Analysis of SCFA production by HPLC, batch culture; assay type: cell-based, human; details: 1% (w/v) substrate
Experimental: The production of succinic, lactic, formic, acetic, propionic, isobutyric, butyric, isovaleric and valeric acids in the fermentations is quantified by HPLC. Samples are centrifuged at 1500×g for 15 minutes and the resultant supernatant used for injection. A Model 1050 UV HPLC (Hewlett Packard), with an integrated oven compartment (50° C.) and data system is used in combination with a differential refractometer (Knauer). Sample injection is performed using an autosampler and is of 20 μl volume. The column is a pre-packed Aminex HPX-87-H strong cation-exchange resin column (150×7.8 mm I.D.), fitted with an ion exclusion micro-guard refill cartridge (Bio-Rad Labs., USA). The eluent used is 0.005 M sulphuric acid. Faecal samples are incubated with 135 ml basal nutrient medium containing 1% (w/v) substrate in batch culture systems at 37° C. Samples are taken every 2 hours up to 10 hours and then at 15 and 24 hours.

[2] = tested on: faecal bacteria; assay: Measure of the prebiotic effect (MPE), batch culture; assay type: cell-based, human; details: ½√(x²y²+x²z²+y²z²), x=PI (μmax), y=ratio, z=Ar; sign from PI
From the text: The three values (PI, Ar and ratio) obtained are used to calculate the MPE value using the following equation: ½√{square root over (x^2y^2+x^2z^2+y^2z^2)}=MPE wherein x=PI (as calculated under paragraph 2.1.2); y=ratio of lactate over total SCFA (as calculated under paragraph 2.2) and z=Ar (as calculated under paragraph 2.3).

[3] = tested on: Clostridia; assay: Batch culture fermentation, FISH enumeration; assay type: cell-based, Clostridium coccoides and Clostridium histolyticum; details: 1% (w/v) substrate
Experimental: (§1) Faecal samples are obtained from healthy human volunteers. Volunteers are required not to have been prescribed antibiotics for at least 6 months prior to the study and have no history of gastrointestinal diseases. The samples are collected on site and used immediately following collection. A 1/10 dilution in anaerobic phosphate buffer (0.1 M, pH 7.4) is prepared and the samples homogenised in a stomacher for 2 minutes.
(§2) Sterile, stirred, batch culture fermentation vessels (300 ml volume) are filled with 135 ml basal nutrient medium (peptone water 2 g/l, yeast extract 2 g/l, NaCl 0.1 g/l, K2HPO4 0.04 g/l, KH2PO4 0.04 g/l, MgSO4.7H2O 0.01 g/l, CaCl2.6H2O 0.01, NaHCO3 2 g/l, Tween 80 2 ml, Hemin 0.02 g/l, Vitamin K1 10 μl, Cysteine.HCl 0.5 g/l, Bile salts (sodium glycocholate and sodium taurocholate) 0.5 g/l, pH 7.0) and gassed overnight with oxygen free nitrogen. […] Samples (3 ml) from each vessel are obtained for fluorescence in situ hybridisation (FISH), analysis of SCFA by high performance liquid chromatography (HPLC) and total carbohydrate measurement by assay. […]
(§3) Differences in bacterial populations are assessed through use of FISH with oligonucleotide probes designed to target diagnostic regions of 16S rRNA. […]

[4] = tested on: E. coli; assay: Batch culture fermentation, FISH enumeration; assay type: cell-based, Escherichia coli; details: 1% (w/v) substrate
From the text: For total bacterial counts the nucleic acid stain 4,6-diamidino-2-phenylindole (DAPI) is used. […] For each slide at least 15 different fields of view are counted. […]

[5] = tested on: faecal bacteria; assay: Total carbohydrate assay, rate of substrate assimilation, batch culture; assay type: cell-based, human; details: St=S0−Art, S0=1% by weight, exponential phase of bacterial growth
Experimental: A phenol-sulphuric acid assay is used for the determination of total carbohydrate content as expressed in glucose equivalents. The assay is calibrated with D-glucose standards ranging from 0 to 0.15 mgml^−1. Measurements of the absorbance at 450 nm are taken using the spectrophotometer and plotted against the standards. The total carbohydrate content is thus calculated. […] Samples are taken every 2 hours up to […] and then at 15 and 24 hours. […] The rate of assimilation is calculated with the following equation: St=S0−Art […]

[6] = tested on: Bifidobacterium spp.; assay: Batch culture fermentation, FISH enumeration; assay type: cell-based; details: 1% (w/v) substrate
Experimental: as §1
(§4) Sterile, stirred, batch culture fermentation vessels (300 ml volume) are filled with 135 ml basal nutrient medium (peptone water 2 g/l, yeast extract 2 g/l, NaCl 0.1 g/l, K2HPO4 0.04 g/l, KH2PO4 0.04 g/l, MgSO4.7H2O 0.01 g/l, CaCl2.6H2O 0.01, NaHCO3 2 g/l, Tween 80 2 ml, Hemin 0.02 g/l, Vitamin K1 10 μl, Cysteine.HCl 0.5 g/l, Bile salts (sodium glycocholate and sodium taurocholate) 0.5 g/l, pH 7.0) and gassed overnight with oxygen free nitrogen. Prior to addition of the faecal slurry,0.25%, 0.5% or 1% (w/v) testing substrates are added to different vessels, culture temperature is set at 37° C. by means of a circulating water bath and medium pH is maintained at 6.8 using an Electrolab pH controller. The vessels are inoculated with 15 ml of fresh faecal slurry ( 1/10 w/v) and continuously sparged with O2-free N2 at a flow rate of 15 ml/min. Samples (3 ml) from each vessel are obtained for fluorescence in situ hybridisation (FISH), analysis of SCFA by high performance liquid chromatography (HPLC) and total carbohydrate measurement by assay. Batch cultures are run over a period of 24 hours and samples are obtained every 2 hours up to 12 hours and then at 15 and 24 hours.
(§5) Differences in bacterial populations are assessed through use of FISH with oligonucleotide probes designed to target diagnostic regions of 16S rRNA. These are commercially synthesised and labelled with the fluorescent dye Cy3 (provided by Eurogentec UK Ltd).
(§6) For total bacterial counts the nucleic acid stain 4,6-diamidino-2-phenylindole (DAPI) is used. Samples obtained from fermentation vessels are diluted in 4% (w/v) paraformaldehyde and fixed overnight at 4° C. The cells are then centrifuged at 1500×g for 5 minutes, washed twice with phosphate-buffered saline (PBS; 0.1 M, pH 7.0), resuspended in a mixture of PBS/99% ethanol (1:1 w/v) and stored at −20° C. for at least 1 hour. For Lab 158 probe samples are further resuspended in the enzyme mixture containing agents that increase cell permeability and incubated for 1 hour at 37° C. The cells are then washed in PBS, resuspended in 100% methanol and stored at −20° C. for at least 1 hour. The cell suspension is then added to the hybridisation mixture and left overnight to hybridise at the appropriate temperature for each probe. Hybridized mixture is vacuum filtered using a 0.2 μm Isopore membrane filter (Millipore Corporation, Herts, UK). The filter is removed, placed onto a glass slide with SlowFade (Molecular Probes, Eugan, Oreg., USA) and examined under a fluorescent microscope (Nicon Eclipse, E400). The DAPI stained cells are examined under UV light and hybridised cells viewed using a DM510 filter. […] Samples are taken after 24 hours. […] Microbial counts are presented as log10cells/ml.

[7] = tested on: Desulfovibrio spp.; assay: Batch culture fermentation, FISH enumeration; assay type: cell-based; details: 1% (w/v) substrate
Experimental: as §1, §4, §5, §6

[8] = tested on: Bacteroides spp.; assay: Batch culture fermentation, FISH enumeration; assay type: cell-based; details: 1% (w/v) substrate
Experimental: as §1, §4, §5, §6

[9] = tested on: Eubacteria; assay: Batch culture fermentation, FISH enumeration; assay type: cell-based, Eubacterium rectale; details: 1% (w/v) substrate
Experimental: as §1, §2, §3

[10] = tested on: Lactobacilli; assay: Batch culture fermentation, FISH enumeration; assay type: cell-based, Lactobacillus/Enterococcus spp.; details: 1% (w/v) substrate
Experimental: as §1, §2, §3

OC[C@H]1O[C@@](CO)(O[C@H]2O[C@H](CO)[C@@H](O)[C@H](O)[C@H]2O)[C@@H](O)[C@@H]1O [Sucrose, sucrose]
lactate production [1]: low
MPE (measure of the prebiotic effect) [2]: −0.6
μmax Cl (maximum growth rate, Clostridium coccoides and Clostridium histolyticum) [3]: 0.22 h⁻¹
Clostridia microbial counts ([3]; 24 hours, FISH): 7.6 log10cells/ml
μmax Co (maximum growth rate, Escherichia coli) [4]: 0.27 h⁻¹
E. Coli microbial counts ([4]; 24 hours, FISH): 7.7 log10cells/ml
Ar (rate of substrate assimilation) [5]: 1.4 per hour
Ar (rate of substrate assimilation) ([5]; listed as sucrose): 1.40 per hour
μmax B (maximum growth rate, Bifidobacterium spp) [6]: 0.13 h⁻¹
Bifidobacteria microbial counts ([6]; 24 hours, FISH): 8.0 log10cells/ml
μmax SRB (maximum growth rate, Desulfovibrio spp) [7]: 0.21 h⁻¹
Desulfovibrio microbial counts ([7]; 24 hours, FISH): 6.7 log10cells/ml
μmax Ba (maximum growth rate, Bacteroides spp) [8]: 0.11 h⁻¹
Bacteroides microbial counts ([8]; 24 hours, FISH): 8.1 log10cells/ml
μmax E (maximum growth rate, Eubacterium rectale) [9]: -0.21 h⁻¹
Eubacteria microbial counts ([9]; 24 hours, FISH): 7.7 log10cells/ml
μmax L (maximum growth rate, lactobacilli) [10]: 0.03 h⁻¹
Lactobacilli microbial counts ([10]; 24 hours, FISH): 6.7 log10cells/ml
